Results on 2 molecules are retold here after US7741521B2, “Inhibition of bid-induced cell-death using small organic molecules” (The Burnham Institute, priority 2004, dated 2010).

pKd: −log10 of the molar value. Entries after “also recorded” stand apart in the source; their conditions may differ.

For one test, the target named is T1, BID (Mus musculus, UniProt P70444).
T1 construct: poly-His (N); made in house; host or cells: E. coli BL21
T1 sequence (P70444 1-195): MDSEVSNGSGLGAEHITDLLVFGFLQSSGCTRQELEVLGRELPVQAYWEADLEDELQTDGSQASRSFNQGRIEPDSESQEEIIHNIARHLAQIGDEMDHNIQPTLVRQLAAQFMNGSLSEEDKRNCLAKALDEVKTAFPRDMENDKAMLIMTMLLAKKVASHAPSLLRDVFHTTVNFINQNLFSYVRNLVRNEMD
Put plainly: NMR binding to BID (HSQC/TROSY chemical shifts). As for the experimental part:
(§1) Recombinant full length mouse BID was produced from a pET-19b (Novagen) plasmid construct containing the entire nucleotide sequence for BID fused to an N-terminal poly-His tag. Unlabeled BID was expressed in E. coli BL21 in LB media at 37° C., with an induction period of 3-4 hours with 1 mM IPTG. ^15N-labeled BID was similarly produced, with growth occurring in M9 media supplemented with 0.5 g/L ^15NH4Cl. ε-^13C-Met labeled BID was produced in M9 media supplemented with 50 mg/L of ε-^13C-Met at time of induction with IPTG. Following cell lysis, soluble BID was purified over a Hi-Trap chelating column (Amersham, Pharmacia), followed by ion-exchange purification with a MonoQ (Amersham, Pharmacia) column. Final BID samples were dialyzed into a buffer appropriate for the subsequent experiments. tBID was produced by cleavage of purified BID with caspase-8, as known in the art.
For all NMR experiments, BID was exchanged into 50 mM phosphate buffer at pH 7.5 and measurements were performed at 30° C. 2D [^15N,^1H]-TROSY spectra for BID were measured with 0.5 mM samples of ^15N-labeled BID. 2D [^13C,^1H]-HSQC spectra were measured with 0.2 mM samples of ε-^13C-Met labeled BID. 2D [^1H,^1H]-NOESY spectra were acquired with small molecules at a concentration of 0.9 mM in the presence of 10 μM BID. T1ρ competition experiments (200 msec spin-lock duration) were performed on either 100 μM BI-2A7 or a mixture of 100 μM BI-2A7 and 10 μM BI-6C9, in the presence and absence of 10 μM BID. All experiments were performed with either a 500 MHz or 600 MHz Bruker Avance spectrometer, both equipped with TXI probes. Typical parameters for the 2D [^15N,^1H]-TROSY spectra included ^1H and ^15N π/2 pulse lengths of 11 μsec and 40 μsec, respectively; ^1H and ^15N sweep widths of 12 ppm and 32 ppm, respectively; 16 scans and 256 indirect acquisition points and a recycle delay of 1 sec. For the 2D [^13C,^1H]-HSQC typical parameters included ^1H and ^13C π/2 pulse lengths of 10 μsec and 13 μsec, respectively; ^1H and ^13C sweep widths of 12 ppm and 5 ppm, respectively; 128 scans and 80 indirect acquisition points and a recycle delay of 1 sec. […]
To examine the binding affinity of some compounds of the invention to BID, 2D [^13C,^1H]-HSQC spectra in presence of ^13C methionine-labeled protein were measured, as at least one methionine is present in the hydrophobic groove of BID (FIG. 4B). […]
Monitoring the variation of cross-peak intensity upon addition of increasing amounts of compound II, allowed to estimate its dissociation constant KD. The arrow on FIG. 5C indicates the peak that was monitored to determine the Kd for compound II. […]

The next test has as its target BCL-XL (Homo sapiens, UniProt Q07817). Put plainly: NMR-binding assay against BCL-XL.
A further test deals with T2, tBID (Mus musculus, UniProt P70444).
T2 construct: tBID was produced by cleavage of purified BID with caspase-8, as known in the art; made in house; host or cells: E. coli BL21 (BID), then cleaved in vitro with caspase-8
T2 sequence (P70444 60-195 limits assumed): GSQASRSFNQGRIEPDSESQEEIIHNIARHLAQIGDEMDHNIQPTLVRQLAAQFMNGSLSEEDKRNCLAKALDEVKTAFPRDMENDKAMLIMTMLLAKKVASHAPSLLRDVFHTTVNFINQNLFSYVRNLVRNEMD
T2 sequence (P70444 1-59 partner limits assumed): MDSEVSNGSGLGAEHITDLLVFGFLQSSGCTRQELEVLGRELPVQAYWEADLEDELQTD
The test is described as follows: NMR chemical shift mapping with tBID (BID cleaved with caspase-8). The test is classed as binding. Conditions: 15N-BID after cleavage with caspase-8. As for the experimental part:
as §1
For all NMR experiments, BID was exchanged into 50 mM phosphate buffer at pH 7.5 and measurements were performed at 30° C. 2D [^15N,^1H]-TROSY spectra for BID were measured with 0.5 mM samples of ^15N-labeled BID. 2D [^13C,^1H]-HSQC spectra were measured with 0.2 mM samples of ε-^13C-Met labeled BID. 2D [^1H,^1H]-NOESY spectra were acquired with small molecules at a concentration of 0.9 mM in the presence of 10 μM BID. […]

BCL-XL, sequence (Q07817 whole entry, species assumed): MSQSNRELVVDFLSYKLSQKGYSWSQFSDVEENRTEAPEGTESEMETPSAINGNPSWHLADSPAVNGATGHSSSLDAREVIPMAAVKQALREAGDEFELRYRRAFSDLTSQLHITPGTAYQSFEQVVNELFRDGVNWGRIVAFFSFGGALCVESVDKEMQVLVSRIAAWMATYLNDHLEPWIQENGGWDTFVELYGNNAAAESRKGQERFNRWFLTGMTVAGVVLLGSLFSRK

`Nc1ccc(Sc2ccc(NC(=O)CNC(=O)c3ccc(O)cc3O)cc2)cc1` [Compound I, N-((4-(4-aminophenylthio)phenylcarbamoyl)methyl)-2,4-dihydroxybenzamide]: on BID (2D [15N-1H]-TROSY chemical shift perturbations), the “specific binding to BID, affinity range” value is on record as “low micromolar range”. Further, the “binding to BID” value at BID (NMR) is given as “strong binder”. For the same molecule, on BCL-XL, the “binding to BCL-XL” value is listed as “did not show appreciable binding”. Further, the “binding to tBID compared with full-length BID” value at tBID is given as “higher affinity”.

Take `COc1ccc(S(=O)(=O)NCCCC(=O)Nc2ccc(Sc3ccc(N)cc3)cc2)cc1` [Compound II, N-[4-(4-amino-phenylsulfanyl)-phenyl]-4-(4-methoxy-benzenesulfonylamino)-butyramide]: at BID (2D [13C,1H]-HSQC, 13C methionine-labeled BID, cross-peak intensity upon titration, read-out: dissociation constant KD), the pKd (usually the negative decadic logarithm of the Kd, by convention in mol/L) is about 4.70. Besides, at BCL-XL, the “binding to BCL-XL” value is reported as “does not bind appreciably; also recorded: did not show appreciable binding”. Besides, on tBID, the “binding to tBID compared with full-length BID” value is “binding even better”.
